Activity calls are given as the source filed them. A value given as a limit tells only on which side of the number the result lay.

The text below walks through data of ChEMBL document CHEMBL3991601, “The target landscape of clinical kinase drugs” (Science, 2017).

For test [1], the target named is MAP kinase-activated protein kinase 3 (Homo sapiens, UniProt Q16644).
The target in test [2] is T1, Isoleucine--tRNA ligase, mitochondrial (Homo sapiens, UniProt Q9NSE4).
T1 sequence (Q9NSE4 whole entry): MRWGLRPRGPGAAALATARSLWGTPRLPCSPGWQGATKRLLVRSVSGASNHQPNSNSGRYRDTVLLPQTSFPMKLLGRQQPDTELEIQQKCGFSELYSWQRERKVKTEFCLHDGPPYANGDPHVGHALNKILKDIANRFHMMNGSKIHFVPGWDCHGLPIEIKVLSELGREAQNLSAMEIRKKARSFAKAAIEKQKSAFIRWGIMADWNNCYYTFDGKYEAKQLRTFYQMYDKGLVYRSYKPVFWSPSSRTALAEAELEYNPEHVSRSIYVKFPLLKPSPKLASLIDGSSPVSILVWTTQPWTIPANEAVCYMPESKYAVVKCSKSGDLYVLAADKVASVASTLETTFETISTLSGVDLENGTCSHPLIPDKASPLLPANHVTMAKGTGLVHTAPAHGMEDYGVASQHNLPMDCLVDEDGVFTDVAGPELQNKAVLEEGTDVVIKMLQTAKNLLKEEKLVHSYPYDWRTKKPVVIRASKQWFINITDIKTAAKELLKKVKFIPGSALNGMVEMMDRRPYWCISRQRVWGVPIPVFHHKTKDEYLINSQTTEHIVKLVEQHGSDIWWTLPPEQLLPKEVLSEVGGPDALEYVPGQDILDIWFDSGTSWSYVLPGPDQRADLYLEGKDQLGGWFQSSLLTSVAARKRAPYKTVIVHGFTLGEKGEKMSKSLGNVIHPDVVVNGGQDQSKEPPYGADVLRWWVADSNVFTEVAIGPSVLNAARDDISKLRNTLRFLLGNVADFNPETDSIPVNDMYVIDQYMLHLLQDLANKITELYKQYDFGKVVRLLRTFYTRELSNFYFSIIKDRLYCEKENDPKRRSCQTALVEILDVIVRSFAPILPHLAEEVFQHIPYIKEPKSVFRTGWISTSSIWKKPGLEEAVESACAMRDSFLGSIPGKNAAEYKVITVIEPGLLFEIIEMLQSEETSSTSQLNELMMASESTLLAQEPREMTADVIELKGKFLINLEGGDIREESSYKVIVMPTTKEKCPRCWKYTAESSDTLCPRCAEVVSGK

For test [3], the target named is Membrane-associated progesterone receptor component 1 (Homo sapiens, UniProt O00264).
Sequence of Membrane-associated progesterone receptor component 1 (O00264 whole entry): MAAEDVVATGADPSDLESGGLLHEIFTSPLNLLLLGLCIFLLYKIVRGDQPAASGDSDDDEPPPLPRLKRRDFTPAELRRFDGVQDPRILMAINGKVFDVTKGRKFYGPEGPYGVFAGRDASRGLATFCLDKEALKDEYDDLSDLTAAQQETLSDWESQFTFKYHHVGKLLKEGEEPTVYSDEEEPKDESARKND
Test [4] has as its target Dual specificity protein kinase CLK3 (Homo sapiens, UniProt P49761). The class given is subcellular, K-562, COLO 205, SK-N-BE(2) and MV-4-11, Cell lysate. Particulars: read-out: Kd apparent.
Test [5] deals with Epidermal growth factor receptor (Homo sapiens, UniProt P00533).
Sequence of Epidermal growth factor receptor (P00533 whole entry): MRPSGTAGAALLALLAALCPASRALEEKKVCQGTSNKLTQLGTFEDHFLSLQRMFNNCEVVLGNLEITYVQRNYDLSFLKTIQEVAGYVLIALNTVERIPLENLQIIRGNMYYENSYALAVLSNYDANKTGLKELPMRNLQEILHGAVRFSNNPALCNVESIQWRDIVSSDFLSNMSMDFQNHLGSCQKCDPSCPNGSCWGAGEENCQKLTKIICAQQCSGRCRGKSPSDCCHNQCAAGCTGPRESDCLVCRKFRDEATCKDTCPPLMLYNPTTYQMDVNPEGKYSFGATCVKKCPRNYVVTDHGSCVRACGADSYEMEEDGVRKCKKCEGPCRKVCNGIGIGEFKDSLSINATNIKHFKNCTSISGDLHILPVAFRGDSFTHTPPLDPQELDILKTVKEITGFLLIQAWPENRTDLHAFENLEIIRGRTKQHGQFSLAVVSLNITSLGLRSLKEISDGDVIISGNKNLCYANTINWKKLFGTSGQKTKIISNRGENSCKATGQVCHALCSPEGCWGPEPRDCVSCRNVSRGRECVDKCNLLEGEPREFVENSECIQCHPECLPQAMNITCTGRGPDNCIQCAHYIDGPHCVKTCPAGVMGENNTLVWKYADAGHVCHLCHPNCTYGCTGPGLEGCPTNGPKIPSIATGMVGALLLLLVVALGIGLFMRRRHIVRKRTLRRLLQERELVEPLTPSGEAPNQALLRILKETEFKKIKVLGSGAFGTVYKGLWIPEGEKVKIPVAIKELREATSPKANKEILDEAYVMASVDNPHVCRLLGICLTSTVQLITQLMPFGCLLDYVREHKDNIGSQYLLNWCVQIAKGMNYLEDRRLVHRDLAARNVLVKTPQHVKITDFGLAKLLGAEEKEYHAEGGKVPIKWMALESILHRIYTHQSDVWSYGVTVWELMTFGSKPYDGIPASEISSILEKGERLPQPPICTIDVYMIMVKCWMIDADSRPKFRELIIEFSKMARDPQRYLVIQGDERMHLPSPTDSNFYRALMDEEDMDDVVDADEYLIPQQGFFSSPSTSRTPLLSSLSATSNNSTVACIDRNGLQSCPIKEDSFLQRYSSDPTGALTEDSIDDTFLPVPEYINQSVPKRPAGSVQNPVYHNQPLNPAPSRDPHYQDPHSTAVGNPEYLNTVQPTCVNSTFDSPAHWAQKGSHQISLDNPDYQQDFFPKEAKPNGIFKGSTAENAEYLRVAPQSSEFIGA
Test [6] has as its target Cell division cycle 7-related protein kinase (Homo sapiens, UniProt O00311).
In test [7] the target is T2, Protein kinase C zeta type (Homo sapiens, UniProt Q05513).
T2 sequence (Q05513 whole entry): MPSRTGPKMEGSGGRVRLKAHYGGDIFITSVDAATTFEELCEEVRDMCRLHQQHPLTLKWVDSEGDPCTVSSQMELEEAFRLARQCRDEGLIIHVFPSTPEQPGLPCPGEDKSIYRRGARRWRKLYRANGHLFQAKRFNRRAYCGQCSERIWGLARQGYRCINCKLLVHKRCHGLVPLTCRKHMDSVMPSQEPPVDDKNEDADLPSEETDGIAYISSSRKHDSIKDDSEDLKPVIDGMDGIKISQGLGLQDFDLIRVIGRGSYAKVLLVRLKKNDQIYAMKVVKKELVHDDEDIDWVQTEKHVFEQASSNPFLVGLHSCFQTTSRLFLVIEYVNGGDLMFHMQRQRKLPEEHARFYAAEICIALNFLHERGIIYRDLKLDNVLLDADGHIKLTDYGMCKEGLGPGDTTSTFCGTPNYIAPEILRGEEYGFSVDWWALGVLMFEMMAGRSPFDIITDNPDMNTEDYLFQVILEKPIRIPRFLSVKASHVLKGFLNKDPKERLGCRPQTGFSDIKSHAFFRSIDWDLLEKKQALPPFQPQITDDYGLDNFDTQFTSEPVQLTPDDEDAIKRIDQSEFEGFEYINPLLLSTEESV

Test [8] deals with Dual specificity protein kinase CLK2 (Homo sapiens, UniProt P49760).
Sequence of Dual specificity protein kinase CLK2 (P49760 whole entry): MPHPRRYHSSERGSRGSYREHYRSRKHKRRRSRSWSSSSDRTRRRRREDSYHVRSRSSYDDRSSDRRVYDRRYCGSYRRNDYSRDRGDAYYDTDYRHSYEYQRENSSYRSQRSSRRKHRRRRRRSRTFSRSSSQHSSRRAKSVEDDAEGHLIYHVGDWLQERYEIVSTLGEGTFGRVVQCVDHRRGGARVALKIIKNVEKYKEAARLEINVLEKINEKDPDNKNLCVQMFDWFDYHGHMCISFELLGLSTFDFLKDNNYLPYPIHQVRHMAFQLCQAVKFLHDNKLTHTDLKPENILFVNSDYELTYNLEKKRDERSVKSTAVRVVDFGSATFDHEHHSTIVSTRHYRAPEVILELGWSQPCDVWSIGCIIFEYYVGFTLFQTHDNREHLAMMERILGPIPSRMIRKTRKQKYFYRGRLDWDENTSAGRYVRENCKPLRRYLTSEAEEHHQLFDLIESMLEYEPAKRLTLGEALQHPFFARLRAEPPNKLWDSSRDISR
Test [9] has as its target Rho-associated protein kinase 1 (Homo sapiens, UniProt Q13464).
In test [10] the target is High affinity nerve growth factor receptor (Homo sapiens, UniProt P04629).
Sequence of High affinity nerve growth factor receptor (P04629 whole entry): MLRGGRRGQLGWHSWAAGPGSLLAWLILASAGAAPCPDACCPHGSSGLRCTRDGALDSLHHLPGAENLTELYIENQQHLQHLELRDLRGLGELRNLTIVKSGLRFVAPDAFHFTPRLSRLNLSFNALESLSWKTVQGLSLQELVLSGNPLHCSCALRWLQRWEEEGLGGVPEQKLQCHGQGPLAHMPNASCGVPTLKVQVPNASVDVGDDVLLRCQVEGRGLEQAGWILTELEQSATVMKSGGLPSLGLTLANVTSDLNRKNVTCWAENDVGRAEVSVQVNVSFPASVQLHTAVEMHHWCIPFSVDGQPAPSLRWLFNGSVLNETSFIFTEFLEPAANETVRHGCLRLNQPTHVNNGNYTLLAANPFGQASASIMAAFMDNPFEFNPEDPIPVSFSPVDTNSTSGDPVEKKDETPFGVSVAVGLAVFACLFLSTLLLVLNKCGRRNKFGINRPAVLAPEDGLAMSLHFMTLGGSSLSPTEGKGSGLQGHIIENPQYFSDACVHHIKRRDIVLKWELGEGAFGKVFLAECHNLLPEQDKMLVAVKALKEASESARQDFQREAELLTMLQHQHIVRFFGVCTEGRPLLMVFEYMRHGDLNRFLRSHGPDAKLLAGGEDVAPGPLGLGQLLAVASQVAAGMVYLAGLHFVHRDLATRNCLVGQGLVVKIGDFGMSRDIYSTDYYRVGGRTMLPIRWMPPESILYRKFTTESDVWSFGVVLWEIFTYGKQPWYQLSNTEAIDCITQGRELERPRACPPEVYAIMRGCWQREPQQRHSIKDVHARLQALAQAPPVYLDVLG
Also: in the data inactive means no Kd found up to 30 µM.

Sequence of Dual specificity protein kinase CLK3 (P49761 whole entry): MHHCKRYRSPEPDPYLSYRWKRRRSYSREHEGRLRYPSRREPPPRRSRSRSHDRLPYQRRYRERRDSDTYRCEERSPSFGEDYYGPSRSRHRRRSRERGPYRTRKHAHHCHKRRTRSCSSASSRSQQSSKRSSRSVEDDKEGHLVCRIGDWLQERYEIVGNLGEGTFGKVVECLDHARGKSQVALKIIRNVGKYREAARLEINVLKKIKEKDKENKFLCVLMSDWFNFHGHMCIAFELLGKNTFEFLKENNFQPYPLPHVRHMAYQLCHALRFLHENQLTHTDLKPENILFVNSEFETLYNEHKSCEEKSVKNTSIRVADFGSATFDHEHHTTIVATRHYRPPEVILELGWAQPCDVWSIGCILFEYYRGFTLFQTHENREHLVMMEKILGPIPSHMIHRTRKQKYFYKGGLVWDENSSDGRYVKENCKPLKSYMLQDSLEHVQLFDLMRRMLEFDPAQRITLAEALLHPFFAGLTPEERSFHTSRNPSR
Sequence of Cell division cycle 7-related protein kinase (O00311 whole entry): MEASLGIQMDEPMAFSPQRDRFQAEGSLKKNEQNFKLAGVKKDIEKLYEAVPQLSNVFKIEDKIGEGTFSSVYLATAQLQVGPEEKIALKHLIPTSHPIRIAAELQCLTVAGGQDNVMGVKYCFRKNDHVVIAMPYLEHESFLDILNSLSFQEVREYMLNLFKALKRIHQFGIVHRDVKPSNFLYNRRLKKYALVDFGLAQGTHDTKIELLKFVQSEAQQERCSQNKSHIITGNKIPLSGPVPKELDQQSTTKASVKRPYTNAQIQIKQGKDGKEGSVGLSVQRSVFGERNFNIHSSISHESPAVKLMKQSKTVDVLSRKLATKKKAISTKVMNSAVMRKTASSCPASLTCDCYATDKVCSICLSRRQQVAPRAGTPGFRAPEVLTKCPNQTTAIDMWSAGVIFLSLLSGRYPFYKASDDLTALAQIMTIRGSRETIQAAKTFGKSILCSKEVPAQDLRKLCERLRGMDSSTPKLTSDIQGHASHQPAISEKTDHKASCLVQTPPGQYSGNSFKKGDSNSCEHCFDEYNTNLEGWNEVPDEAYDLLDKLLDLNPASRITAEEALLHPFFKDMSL
Sequence of MAP kinase-activated protein kinase 3 (Q16644 whole entry): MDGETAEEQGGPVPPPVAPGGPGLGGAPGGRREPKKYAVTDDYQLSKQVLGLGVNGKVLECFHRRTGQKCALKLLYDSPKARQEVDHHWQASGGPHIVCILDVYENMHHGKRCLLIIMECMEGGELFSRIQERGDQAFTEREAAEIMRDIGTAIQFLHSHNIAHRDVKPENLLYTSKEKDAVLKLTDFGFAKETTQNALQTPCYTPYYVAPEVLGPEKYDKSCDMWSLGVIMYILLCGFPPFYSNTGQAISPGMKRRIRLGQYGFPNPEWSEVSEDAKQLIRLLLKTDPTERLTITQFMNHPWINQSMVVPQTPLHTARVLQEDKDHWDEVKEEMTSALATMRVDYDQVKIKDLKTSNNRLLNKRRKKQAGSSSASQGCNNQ

For `CCN(CCCOc1ccc2c(Nc3cc(CC(=O)Nc4cccc(F)c4)n[nH]3)ncnc2c1)CCOP(=O)(O)O` [BARASERTIB], the Kd in test [1], in [2], in test [3] and in test [4] was > 30 µM (inactive) throughout.

Regarding `C=CCn1c(=O)c2cnc(Nc3ccc(N4CCN(C)CC4)cc3)nc2n1-c1cccc(C(C)(C)O)n1` [ADAVOSERTIB], the Kd in test [5], in test [6], in [2], in test [3], in test [7] and in test [4] was > 30 µM (inactive) each time.

On to `COc1cc2ncnc(Nc3ccc(F)c(Cl)c3)c2cc1NC(=O)/C=C/CN1CCCCC1` [DACOMITINIB ANHYDROUS], for which the Kd in test [1], in [8], in [6], in [4], in test [9] and in [10] was > 30 µM (inactive) in each case.

Consider `O=C(NOC[C@H](O)CO)c1ccc(F)c(F)c1Nc1ccc(I)cc1F` [MIRDAMETINIB], for which the Kd in [1], in test [8], in [5], in test [3], in [4] and in test [9] was > 30 µM (inactive) throughout. For the same compound, in [10], the Kd was > 30 µM (inactive).

In the case of `CNC(=O)c1cccc(-c2ccc3c(N4CCOC[C@@H]4C)nc(N4CCOC[C@@H]4C)nc3n2)c1` [VISTUSERTIB], the Kd in test [1], in test [8], in test [5], in test [6], in [2] and in test [3] was > 30 µM (inactive) throughout. The Kd in test [4], in test [9] and in test [10] was > 30 µM (inactive) in each case.

For `COc1cc2c(Oc3ccc4[nH]c(C)cc4c3F)ncnc2cc1OCCCN1CCCC1` [CEDIRANIB], the Kd in test [6], in test [2] and in [7] was > 30 µM (inactive) in each case.

As for `Cn1cnc2c(F)c(Nc3ccc(Br)cc3Cl)c(C(=O)NOCCO)cc21` [SELUMETINIB], the Kd in [6], in test [2], in test [3] and in test [7] was > 30 µM (inactive) throughout.

Turning to `CC1(COc2ccc3c(c2)ncn3-c2ccc3cccc(N4CCC(N)CC4)c3n2)COC1` [CRENOLANIB], the Kd in test [5], in test [6], in test [2], in test [7], in test [4] and in test [9] was > 30 µM (inactive) each time. Moreover, the Kd in [10] was 0.008 µM (active).

Turning to `Cn1c(=O)c(F)c(Nc2ccc(I)cc2F)c2c(=O)n(C[C@@H](O)CO)cnc21` [TAK-733], the Kd in test [1], in [8], in test [5], in test [3], in test [4] and in test [9] was > 30 µM (inactive) each time. Also, the Kd in test [10] was > 30 µM (inactive).

In the case of `COc1ccc2c(OCc3nnc4ccc(-c5ccccc5)nn34)ccnc2c1` [AMG-208], the Kd in test [1], in test [8], in [5], in [2], in [3] and in [4] was > 30 µM (inactive) throughout. Also, in test [9], the Kd was > 30 µM (inactive).

On to `CC1(C)CNc2cc(NC(=O)c3cccnc3NCc3ccncc3)ccc21` [MOTESANIB], for which the Kd in test [6], in test [3] and in [7] was > 30 µM (inactive) each time.

`COc1cccc(Nc2ncnn3ccc(CN4CC[C@@H](N)[C@H](O)C4)c23)c1` [BMS-690514]: the Kd in test [5] was 0.225 µM (active); in test [7] it was > 30 µM (inactive).

For the compound `S=C(NCc1ccc2c(c1)OCO2)N1CCN(c2ncnc3c2oc2ccccc23)CC1` [AMUVATINIB], the Kd in test [1], in test [8], in test [5], in test [6], in test [2] and in [3] was > 30 µM (inactive) throughout. For the same compound, the Kd in test [9] and in test [10] was > 30 µM (inactive) each time.

Consider `COc1cc(F)c(F)c(Nc2ccc(I)cc2F)c1NS(=O)(=O)C1(C[C@H](O)CO)CC1` [REFAMETINIB], for which the Kd in [8], in test [5], in [2], in [7], in [9] and in test [10] was > 30 µM (inactive) throughout.

Regarding `Cc1ccc(C(=O)Nc2ccc(Oc3cc4cnn(C)c4cc3-c3cn[nH]c3)c(F)c2)c(=O)n1-c1ccc(F)cc1` [MERESTINIB], the Kd in test [1], in test [8], in test [5], in test [6], in test [2] and in [3] was > 30 µM (inactive) each time. For the same compound, the values for the Kd in test [4], in test [9] and in test [10] were > 30 µM (inactive), > 30 µM (inactive) and 1.03 µM, respectively.

In the case of `C=CC(=O)Nc1cc(Nc2nccc(-c3cn(C)c4ccccc34)n2)c(OC)cc1N(C)CCN(C)C` [OSIMERTINIB], the Kd in test [1], in test [8], in test [2], in [3], in test [4] and in test [9] was > 30 µM (inactive) each time. The Kd in test [10] was > 30 µM (inactive).

In the case of `COc1cc(Nc2ncc(F)c(Nc3ccc4c(n3)N(COP(=O)(O)O)C(=O)C(C)(C)O4)n2)cc(OC)c1OC` [FOSTAMATINIB], the Kd in test [5], in [6], in test [2], in test [3], in test [7] and in test [4] was > 30 µM (inactive) in each case. The Kd in test [9] and in [10] was > 30 µM (inactive) each time.

With `O=S(=O)(c1cccc2c(O)nccc12)N1CCCNCC1` [HYDROXYFASUDIL], the Kd in test [8], in test [3], in test [7], in test [4] and in [10] was > 30 µM (inactive) in each case.

Turning to `O=C(O)c1ccc2c(c1)nc(Nc1cccc(Cl)c1)c1ccncc12` [SILMITASERTIB], the Kd in test [1] was 0.026 µM (active); in test [5], > 30 µM (inactive); in [3], > 30 µM (inactive); in [4] it was 0.01 µM (active); in test [10], > 30 µM (inactive).
